In patent US7589065B2, “Catalysis of the cis/trans-isomerisation of secondary amide peptide compounds” (Max-Planck Gesellschaft zur Forderung der Wissenschaften, …, priority 2001, dated 2009):

Experiments:
DnaK = DnaK (Escherichia coli, UniProt P0A6Y8); experiment: biochemical
Procedure: (§1) RNAse T1 contains a Ser-Pro sequence with a cis conformation at the sequence site 38/39. […] In detail, the protein is unfolded by suitable additives and the renaturation rate is measured and registered after removal of the additives, e.g. by rapid dilution. As is shown (Scholz et al., Biol. chem. 1998, March; 379(3): 361-5), the exchange of the prolin 39 with an alanine (P39A) leads to a protein mutant whose foldback rate is […] influenced by this peptide bond. Added APIase, dependent on concentration, catalyses the isomerisation of this non-prolyl peptide bond and, thus, the foldback of the P39A mutant.
(§2) […] RNAse T1 P39A was incubated with 5 M guanidinium-Cl and 0.1 M Tris-HCl at pH 8 at 15° C. for 60 min. The foldback at 15° C. was started by a 40-fold dilution of the unfolded protein in foldback buffer (0.1 Tris-HCl, 50 mM KCl, 11 mM MgCl2) at pH 8. The foldback was determined as increase of the protein fluorescence at 320 nm (10 nm width of band) with excitation of 278 nm (1.5 nm width of band) with a Jobin-Yvon-Spex Fluoromax-2 fluorescence spectrometer.

APIase activity of DnaK = target: T1, APIase activity of DnaK (Escherichia coli, UniProt P0A6Y8); experiment: Inhibition of the APIase activity of DnaK in the spectrophotometric Ala-Leu activity test; type: biochemical
T1 construct: purchased SIGMA-ALDRICH CHEMIE GmbH, Germany
T1 sequence (P0A6Y8 whole entry): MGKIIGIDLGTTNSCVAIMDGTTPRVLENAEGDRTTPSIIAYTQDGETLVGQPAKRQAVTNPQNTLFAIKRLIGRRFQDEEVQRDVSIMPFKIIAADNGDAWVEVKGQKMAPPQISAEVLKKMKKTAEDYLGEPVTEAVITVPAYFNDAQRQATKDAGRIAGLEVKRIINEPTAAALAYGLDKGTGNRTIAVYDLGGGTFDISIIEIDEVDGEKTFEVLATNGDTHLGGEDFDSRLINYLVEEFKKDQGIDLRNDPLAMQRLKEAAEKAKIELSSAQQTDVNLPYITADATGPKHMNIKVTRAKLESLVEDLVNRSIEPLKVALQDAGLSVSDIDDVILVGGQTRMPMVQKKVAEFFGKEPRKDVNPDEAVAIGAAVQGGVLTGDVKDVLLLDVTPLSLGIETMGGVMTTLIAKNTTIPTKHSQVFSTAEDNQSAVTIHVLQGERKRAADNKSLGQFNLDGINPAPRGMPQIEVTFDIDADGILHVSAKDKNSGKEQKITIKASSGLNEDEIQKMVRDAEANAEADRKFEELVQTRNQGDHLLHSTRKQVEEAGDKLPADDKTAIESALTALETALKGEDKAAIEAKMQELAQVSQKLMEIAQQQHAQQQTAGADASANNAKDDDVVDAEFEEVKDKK
Procedure: The peptide bond of the substrate Ala-Leu is to about 99% in the trans conformation at pH 7.4. An increase of the proton concentration of the aqueous Ala-Leu solution to about 100 mM results in a shift of the equilibrium of the conformations to a higher content of the peptide with the cis conformation. […] The isomerisation rate can be measured when the substrate is subjected to a pH modification that has an influence on the cis/trans equilibrium of the substrate and when the rate of the pH modification is higher than the isomerisation rate of the substrate. In this context, the isomerisation rate corresponds to the sum of the individual rates cis to trans and trans to cis of the two conformation isomers of the substrate. In the present example, a so-called Stopped-Flow device from the company Applied Photophysics Ltd. (England) is used. This spectroscopic device makes a rapid mixture of two components and, subsequently, a collection of spectroscopic data, which is rapid and […], possible. Moreover, an accompanying software makes it possible for the rate constants (kobs) to be calculated while assuming a concentration/time law that corresponds to a so-called “first-order time law”. […]

[1] = Stopped-flow spectroscopic test of catalysis of the cis/trans isomerisation of Ala-Leu (APIase activity); type: biochemical
Description: The peptide bond of the substrate Ala-Leu is to about 99% in the trans conformation at pH 7.4. […] The isomerisation rate can be measured when the substrate is subjected to a pH modification that has an influence on the cis/trans equilibrium of the substrate and when the rate of the pH modification is higher than the isomerisation rate of the substrate. In this context, the isomerisation rate corresponds to the sum of the individual rates cis to trans and trans to cis of the two conformation isomers of the substrate. In the present example, a so-called Stopped-Flow device from the company Applied Photophysics Ltd. (England) is used. This spectroscopic device makes a rapid mixture of two components and, subsequently, a collection of spectroscopic data, which is rapid and time-independent, possible. Moreover, an accompanying software makes it possible for the rate constants (kobs) to be calculated while assuming a concentration/time law that corresponds to a so-called “first-order time law”. For the detection of the catalysis, the following assay was selected: • Stock solution Ala-Leu (Bachem, Switzerland) 10 mM dissolved in Aqua dest. with pH 2.0, adjusted by means of HCl • Buffer solution: 12.5 mM Tris, 50 mM KCl, 11 mM MgCl2 with HCl adjusted to pH 8.8 DnaK (SIGMA-ALDRICH CHEMIE GmbH, Germany), or produced in a molecular biological way
After mixing the components in the Stopped-Flow device, the reaction solution had the following concentrations: 1.66 mM Ala-Leu, 10.4 mM Tris, 41.6 mM KCl, 9.2 mM MgCl2. The pH was 7.6. All the solutions were kept constant at a temperature of 25° C.
The thickness of the coating of the silica cuvets was 2 mm, the measuring wave length was 220 nm.
The following solutions were used: • Buffer solution: 12.5 mM Tris, 50 mM KCl, 11 mM MgCl2. • Substrate solution: 20 mM Ala-Leu, dissolved in Aqua dest. at pH 2.0. • DnaK stock solution: 20 μM in buffer solution a
The pH of the solution in the cuvet was 7.3 each. The error lines indicated result from three independent measurements for the determination of the rate constant kobs with a DnaK concentration.
In order to establish whether Cyp18 catalyses the cis/trans isomerisation of the dipeptide Ala-Leu, the isomerisation rate was analysed in the presence of up to 8.4 μM Cyp18: • Human Cyp18 was either bought (SIGMA-ALDRICH CHEMIE GmbH, Germany) or produced as recombinant enzyme (E. coli cultures). The cyclophilin concentration of the cyclophilin stock solution of 1.14 mM was determined by means of titration against the cyclophilin inhibitor cyclosporin A (SIGMA-ALDRICH CHEMIE GmbH, Germany). The substrate Ala-Leu (BACHEM, Switzerland) used was produced as 10 mM stock solution in water with a pH of 2.0. The buffer solution used contained a mixture of the following chemicals: 12 mM Tris, 50 mM KCl, 11 mM MgCI2 and was adjusted with HCl to a pH of 8.8. The measurement of the isomerisation rate of the substrate took place with the Stopped-Flow-Photometer (Applied Photophysics Ltd., England) at 25°C. with 228 nm using 1 cm quartz cuvets. By adding the substrate to the mixture of buffer and Cyp18, solutions were produced in the cuvet with Cyp18 concentrations of 0, 208, 416, 625, 833 and 8,330 nM and 1.66 mM Ala-Leu each with a pH of 7.9.

[2] = 2D 1H NMR exchange (NOESY) measurement of cis/trans isomerisation in the pentapeptide; type: biochemical; conditions: for relative intensity of the cross signal of the peptide bond Ala-Tyr / relative intensity of the cross signal of the peptide bond Tyr-Ala: 25 mM pentapeptide, pH 7.1, 278° K; for relative intensity of the cross signal of the peptide bond Ala-Tyr: no addition 3.50 ± 0.51; for relative intensity of the cross signal of the peptide bond Tyr-Ala: no addition 3.89 ± 0.32
Description: A further possibility, only described in 1998, is the determination of the cis/trans isomerisation rate of secondary amide peptide bonds containing aromatic amino acids by means of 2D 1H NMR exchange experiments (Scherer G. et al., 1998, JACS 120:5568-5574). In Example 8, this NMR method is used to determine a catalytic acceleration of the cis/trans isomerisation of the peptide bonds Ala-Tyr and Tyr-Ala within the pentapeptide Ala-Ala-Tyr-Ala-Ala. The acceleration is accomplished by catalytic amounts of DnaK.
NMR Device: Bruker DRX-500, Equipped with z-gradient
• FIG. 8: The alanine methyl region from the two-dimensional exchange 1H-NMR spectrum of 25 mM Ala-Ala-Tyr-Ala-Ala in 25 mM Tris, 11 mM MgCl2, 50 mM KCl, 9:1H2O:D2O, pH 7.1 at 278° K. The mixing time of the phase-sensitive NOESY was 330 ms. Each FID had 184 scans. The amount of data from t1×t2=512×8192 points covered a spectral range of 5501 Hz×5482 Hz. The correction of the base line was carried out by adjustment with a polynom of fifth order in the F2 dimension. […] The experiment was carried out under identical conditions as described above. In addition, 20 μM DnaK was contained in the measuring solution.
In a further analysis of the method of the two-dimensional NOESY experiment illustrated in Example 8, the cross signals can be quantified by means of common mathematical techniques.

RNAse T1 P39A = experiment: Foldback of RNAse T1 P39A catalysed by APIase; type: biochemical; conditions: 1 μM DnaK, 15° C., pH 8; without APIase 6.67×10^−4
Procedure: as §1, §2

[3] = DnaK 250 and 1,000 nM, 10° C., pH 7.8
Procedure: The details of Example 5 are described as follows: • Measuring device: Spectrophotometer Diodenarray HP8452A (Hewlett Packard, USA) • Substrate: Suc-Ala-Phe-Pro-Phe-NHNp (SEQ ID NO:2) (BACHEM, Switzerland) • Protease: Chymotrypsin (Merck, Germany) • Measure temperature: 10° C. • Buffer: 35 mM Hepes, pH 7.8 • Protease solution for use: 5 mg protease per ml buffer • Substrate solution for use: 35 mg substrate dissolved in 1 ml DMSO • DnaK solution for use: 30 μM in buffer • Cuvet: 1 ml quartz cuvet, thickness of layer 1 cm • Measuring wave length: 390 nm
Process: After attemperating a mixture of substrate, DnaK and buffer, the reaction is started by rapid addition and homogenous distribution of the protease solution for use. In this way, a chymotrypsin concentration of 0.83 mg/ml is achieved in the cuvet. By means of the substrate amount contained in the cuvet, a final extinction of about 0.43 is accomplished after complete turnover of the substrate. The concentrations of DnaK contained in the cuvet were 0.250 and 1,000 nM.

DnaK, sequence (P0A6Y8 whole entry): as above

CCCCCCCCCCCC(=O)NC(CC(=O)O)C(=O)O (stereo not shown) [28/B7]
IC50 (DnaK): 177 µM

CCCCCCCCCCCC(=O)NC(Cc1c[nH]c2ccccc12)C(=O)O (stereo not shown) [28/C8]
IC50 (DnaK): 55.3 µM

CCCCCCCC/C=C\CCCCCCCC(=O)NC(CC(C)C)C(=O)NCCc1ccccc1 (stereo not shown) [30/B4]
IC50 (DnaK): 7.5 µM

CCCCCCCCCCCCCCCC(=O)NCc1ccc(C(=O)NCC2CCC(C(=O)O)CC2)cc1 (stereo not shown) [37/B11]
IC50 (DnaK): 5.9 µM

CSCC[C@H](NC(=O)[C@H](CC(C)C)NC(=O)CNC(=O)[C@H](Cc1ccccc1)NC(=O)[C@H](Cc1ccccc1)NC(=O)[C@H](CCC(N)=O)NC(=O)[C@H](CCC(N)=O)NC(=O)[C@@H]1CCCN1C(=O)[C@H](CCCCN)NC(=O)[C@@H]1CCCN1C(=O)[C@@H](N)CCCN=C(N)N)C(N)=O [substance P]
IC50 (APIase activity of DnaK): 76 ± 16 µM

Cyp18: human peptidyl-prolyl cis/trans isomerase of the cyclophilin family, EC 5.2.1.8, P05092
rate constants kobs of the isomerisation of Ala-Leu ([1]; Cyp18 0 to 8,330 nM, independent of concentration, 1.66 mM Ala-Leu, pH 7.9, 25° C., 228 nm): about 0.43±0.03 s^−1
acceleration of the cis to trans reaction of Ala-Leu (in words) ([1]; up to 8.4 μM Cyp18, observation period 20 seconds): no acceleration of the cis to trans reaction could be observed

DnaK: protein with APIase activity, bought from SIGMA-ALDRICH or produced in a molecular biological way
change of the relative intensity of the Ala-Tyr cross signal (in words) ([2]; 20 μM DnaK): nearly doubles
influence on the cis/trans isomerisation rate of the Tyr-Ala peptide bond (in words) ([2]; 20 μM DnaK): no influence
relative intensity of the cross signal of the peptide bond Ala-Tyr ([2]; 20 μM addition): 6.37 ± 0.57
relative intensity of the cross signal of the peptide bond Tyr-Ala ([2]; 20 μM addition): 3.39 ± 0.45
rate constant of the foldback of RNAse T1 P39A (RNAse T1 P39A): 9.77×10^−4 -s
rate constant (kobs) of the cis/trans isomerisation of Ala-Leu ([1]; 624 nM DnaK, 1.66 mM Ala-Leu, pH 7.6, 25° C., non-catalysed reaction 0.36 s^−1): 0.55 s⁻¹
time until the conformation equilibrium occurs ([1]; 624 nM DnaK, without DnaK about 20 seconds): less than 10 seconds
influence on the peptidyl-prolyl cis/trans isomerisation rate of the substrate (in words) [3]: did not show a visible influence on the cis/trans isomerisation rate of the substrate

FKBP12: peptidyl-prolyl cis/trans isomerase from SIGMA-ALDRICH
catalysis of the cis/trans isomerisation of the Ala-Tyr and Tyr-Ala peptide bonds (in words) ([2]; 20 μM addition): neither catalyse
relative intensity of the cross signal of the peptide bond Ala-Tyr ([2]; 20 μM addition): 3.94 ± 0.87
relative intensity of the cross signal of the peptide bond Tyr-Ala ([2]; 20 μM addition): 2.68 ± 0.75

bovine serum albumin: purified reference protein (SIGMA-ALDRICH)
catalysis of the cis/trans isomerisation of the dipeptide Ala-Leu (in words) ([1]; 1 μM purified protein instead of Cyp18): not able to catalyse the cis/trans isomerisation of the dipeptide
